# Test results: ChEMBL document CHEMBL3217438, “Diphenylbutylpiperidine-based cell autophagy inducers: Design, synthesis and SAR studies” (Medchemcomm, 2011)
# Assay: Induction of autophagy in human H4-LC3 cells assessed as number of spots of LC3-GFP after 4 hrs by DAPI staining
# Assay type: functional, cell-based
row,SMILES,EC50 [µM]
1,O=c1oc2ccccc2n1C1CCN(CCCC(c2ccc(F)cc2)c2ccc(F)cc2)CC1,8.2
2,O=c1sc2ccccc2n1C1CCN(CCCC(c2ccc(F)cc2)c2ccc(F)cc2)CC1,> 50
3,Fc1ccc(C(CCCN2CCC(n3cnc4ccccc43)CC2)c2ccc(F)cc2)cc1,4.2
4,O=[N+]([O-])c1ccc2c(cnn2C2CCN(CCCC(c3ccc(F)cc3)c3ccc(F)cc3)CC2)c1,4.5
5,Fc1ccc(C(CCCN2CCC(n3nnc4ccccc43)CC2)c2ccc(F)cc2)cc1,> 50
6,Fc1ccc(C(CCCN2CCC(N3CCc4ccccc43)CC2)c2ccc(F)cc2)cc1,3.8
7,Fc1ccc(C(CCCN2CCC(c3c[nH]c4ccccc34)CC2)c2ccc(F)cc2)cc1,6.4
8,Fc1ccc(C(CCCN2CCC(N3Cc4ccccc4C3)CC2)c2ccc(F)cc2)cc1,4.1
9,O=C1c2ccccc2C(=O)N1C1CCN(CCCC(c2ccc(F)cc2)c2ccc(F)cc2)CC1,> 50
10,Fc1ccc(C(CCCN2CCC(n3nc4ccccc4n3)CC2)c2ccc(F)cc2)cc1,> 50
11,Fc1ccc(C(CCCN2CCC(c3nc4ccccc4[nH]3)CC2)c2ccc(F)cc2)cc1,4
12,Fc1ccc(C(CCCN2CCC(c3nc4ccccc4o3)CC2)c2ccc(F)cc2)cc1,11.2
13,Fc1ccc(C(CCCN2CCC(c3nc4ccccc4s3)CC2)c2ccc(F)cc2)cc1,10.6
14,O=C1NCc2ccccc2N1C1CCN(CCCC(c2ccc(F)cc2)c2ccc(F)cc2)CC1,2.9
15,O=S1(=O)NCc2ccccc2N1C1CCN(CCCC(c2ccc(F)cc2)c2ccc(F)cc2)CC1,10.2
16,Fc1ccc(C(CCCN2CCC(N3CCc4ccccc4C3)CC2)c2ccc(F)cc2)cc1,6
17,O=C1Oc2ccccc2CN1C1CCN(CCCC(c2ccc(F)cc2)c2ccc(F)cc2)CC1,4.1

row,SMILES,EC50 [µM]
1,O=C1Nc2ccccc2CN1C1CCN(CCCC(c2ccc(F)cc2)c2ccc(F)cc2)CC1,1.3
2,O=S1(=O)Nc2ccccc2CN1C1CCN(CCCC(c2ccc(F)cc2)c2ccc(F)cc2)CC1,21.7
3,O=c1c2ccccc2nnn1C1CCN(CCCC(c2ccc(F)cc2)c2ccc(F)cc2)CC1,7.8
4,O=c1[nH]c2ccccc2c(=O)n1C1CCN(CCCC(c2ccc(F)cc2)c2ccc(F)cc2)CC1,2.8
5,FC(F)(F)c1ccc(C(CCCN2CCC(N3CCc4ccccc43)CC2)c2ccc(C(F)(F)F)cc2)cc1,1.2
6,FC(F)(F)c1ccc(C(CCCN2CCC(c3c[nH]c4ccccc34)CC2)c2ccc(C(F)(F)F)cc2)cc1,0.45
7,FC(F)(F)c1ccc(C(CCCN2CCC(N3Cc4ccccc4C3)CC2)c2ccc(C(F)(F)F)cc2)cc1,1.5
8,FC(F)(F)c1ccc(C(CCCN2CCC(c3nc4ccccc4[nH]3)CC2)c2ccc(C(F)(F)F)cc2)cc1,0.9
9,N#CC(CCCN1CCC(N2CCc3ccccc32)CC1)(c1ccccc1)c1ccccc1,4.5
10,N#CC(CCCN1CCC(c2c[nH]c3ccccc23)CC1)(c1ccccc1)c1ccccc1,2.6
11,N#CC(CCCN1CCC(N2Cc3ccccc3C2)CC1)(c1ccccc1)c1ccccc1,7.1
12,N#CC(CCCN1CCC(c2nc3ccccc3[nH]2)CC1)(c1ccccc1)c1ccccc1,8.5
13,Fc1ccc(C(CCCN2CCN(c3nsc4ccccc34)CC2)c2ccc(F)cc2)cc1,10.1
14,O=C1NC2(CCN(CCCC(c3ccc(F)cc3)c3ccc(F)cc3)CC2)Nc2ccccc21,1.9
15,Fc1ccc(C(CCCN2CCC(c3noc4cc(F)ccc34)CC2)c2ccc(F)cc2)cc1,> 50
16,O=c1[nH]c2ccccc2n1C1CCN(CCCC(c2ccc(F)cc2)c2ccc(F)cc2)CC1 [PIMOZIDE],5.4
